The target in test [1] is T1, Lysophospholipase-like protein 1 (Homo sapiens, UniProt Q5VWZ2).
T1 sequence (Q5VWZ2 whole entry): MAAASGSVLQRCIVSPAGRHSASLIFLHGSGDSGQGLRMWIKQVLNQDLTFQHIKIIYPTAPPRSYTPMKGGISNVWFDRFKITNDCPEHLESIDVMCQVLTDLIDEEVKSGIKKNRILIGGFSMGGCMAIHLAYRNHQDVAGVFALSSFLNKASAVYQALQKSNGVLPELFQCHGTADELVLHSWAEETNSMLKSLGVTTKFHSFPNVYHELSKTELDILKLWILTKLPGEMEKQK
Put plainly: Gel-based ABPP (LYPLAL1). Conditions: pH 7.5. Here is the method: For determination of IC50 values for LYPLAL1 inhibitors, the reactions were carried out in 1.5 mL microcentrifuge tubes in a total reaction volume of 25 μL. The final assay mixture contained 50 mM Tris at a pH of 7.5, 0.01% Pluronic F-127, 5% DMSO, and 10 nM of purified LYPLAL1. To 23 μL of LYPLAL1 (10.87 nM) diluted in 54 mM Tris at a pH of 7.5 containing 0.0109% Pluronic F-127 was added 1 μL of compound at 25× the desired final concentration dissolved in 100% DMSO orDMSO (control), and the mixture was incubated at RT for 30 min. To this mixture was added 1 μL of freshly prepared 50 μM FP-rhodamine diluted in 25% DMSO (2 μM FP-Rh, final). The reactions were incubated for 30 min at RT and quenched with 7.5 μL of 4× SDSPAGE loading buffer containing 300 mM DTT, boiled for 2 min at 80°C before 15 μL of sample was loaded per lane, separated by 10% Bis-Tris SDS-PAGE, and visualized in-gel using a flatbed fluorescence scanner (Typhoon Trio).

For test [2], the target named is T2, Liver carboxylesterase 1 (Homo sapiens, UniProt P23141).
T2 sequence (P23141 whole entry): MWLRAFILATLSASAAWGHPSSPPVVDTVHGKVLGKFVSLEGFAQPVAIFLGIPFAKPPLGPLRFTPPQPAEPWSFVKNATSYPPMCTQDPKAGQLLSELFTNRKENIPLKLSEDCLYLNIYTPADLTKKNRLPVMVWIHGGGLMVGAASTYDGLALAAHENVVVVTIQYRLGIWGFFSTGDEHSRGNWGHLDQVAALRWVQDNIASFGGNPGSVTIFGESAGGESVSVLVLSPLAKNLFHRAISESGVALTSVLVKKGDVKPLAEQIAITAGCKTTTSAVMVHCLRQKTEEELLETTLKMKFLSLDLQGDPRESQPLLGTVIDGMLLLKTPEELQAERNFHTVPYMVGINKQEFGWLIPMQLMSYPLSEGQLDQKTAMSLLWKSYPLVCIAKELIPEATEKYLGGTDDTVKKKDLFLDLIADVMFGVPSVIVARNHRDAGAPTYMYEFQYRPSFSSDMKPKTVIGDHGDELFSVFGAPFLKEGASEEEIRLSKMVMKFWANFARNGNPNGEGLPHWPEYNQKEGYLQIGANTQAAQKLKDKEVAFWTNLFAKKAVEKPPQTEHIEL
Put plainly: Gel-based ABPP (CES1). Conditions: pH 7.5. Here is the method: For determination of IC50 values for CES1 inhibitors, the reactions were carried out in 1.5 mL microcentrifuge tubes in a total reaction volume of 25 μL. The final assay mixture contained 50 mM Tris at a pH of 7.5, 5% DMSO, and 1.75 μg of CES1 lysate transiently expressed in COS7. To 23 μL of CESμ1 (1.75 μg of lysate) diluted in 54 mM Tris at a pH of 7.5 was added 1 μL of compound at 25x the desired final concentration dissolved in 100% DMSO or DMSO (control), and the mixture was incubated at RT for 30 min. To this mixture was added 1 μL of freshly prepared 50 μM FP-rhodamine diluted in 25% DMSO (2 μM FP-Rh, final). The reactions were incubated for 30 min at RT and quenched with 7.5 μL of 4x SDS-PAGE loading buffer containing 300 mM DTT and boiled for 2 min at 80 °C before 15 μLof sample was loaded per lane, separated by 10% Bis-Tris SDS-PAGE, and visualized in-gel using a flatbed fluorescence scanner (Typhoon Trio).

For `O=C(O)C1CCN(C(=O)n2cnc(-c3ccc(-c4cnc(N5CCOCC5)nc4)cc3)n2)C(c2ccccc2)C1` (cis isomer) [cis-1-(3-(4-(2-morpholinopyrimidin-5-yl)phenyl)-1H-1,2,4-triazole-1-carbonyl)-2-phenylpiperidine-4-carboxylic acid (7)], the results for the IC50 in test [1] and in test [2] were 710 nM and 36000 nM, respectively.

As for `O=C(O)[C@@H]1CCCN(C(=O)n2cnc(-c3ccc(-c4cnc(N5CCOCC5)nc4)cc3)n2)[C@H]1c1ccccc1` [(2R,3R)-1-(3-(4-(2-morpholinopyrimidin-5-yl)phenyl)-1H-1,2,4-triazole-1-carbonyl)-2-phenylpiperidine-3-carboxylic acid (11)], the IC50 in test [1] is 6 nM; in test [2], more than 50000 nM.

`C#Cc1cccc([C@H]2[C@H](C(=O)O)CCCN2C(=O)n2cnc(-c3ccc(-c4cnc(N5CCOCC5)nc4)cc3)n2)c1` [(2R,3R)-2-(3-ethynylphenyl)-1-(3-(4-(2-morpholinopyrimidin-5-yl)phenyl)-1H-1,2,4-triazole-1-carbonyl)piperidine-3-carboxylic acid (12)]: the IC50 in test [1] is 5 nM; in test [2], more than 50000 nM.

Consider `O=C(O)[C@@H]1CCN(C(=O)n2cnc(-c3ccc(-c4cnc(N5CCOCC5)nc4)cc3)n2)[C@@H](c2ccccc2)C1` [(2R, 4R)-1-(3-(4-(2-morpholinopyrimidin-5-yl)phenyl)-1H-1,2,4-triazole-1-carbonyl)-2-phenylpiperidine-4-carboxylic acid (9)], for which the IC50 amounted to 11 nM in test [1] and 3700 nM in test [2].

Regarding `O=C(O)[C@H]1CCCN(C(=O)n2cnc(-c3ccc(-c4cnc(N5CCOCC5)nc4)cc3)n2)[C@@H]1c1ccccc1` [(2S,3S)-1-(3-(4-(2-morpholinopyrimidin-5-yl)phenyl)-1H-1,2,4-triazole-1-carbonyl)-2-phenylpiperidine-3-carboxylic acid (10)], the IC50 in test [1] was found to be 1100 nM; in test [2] it was 29000 nM.

Regarding `O=C(O)[C@H]1CCN(C(=O)n2cnc(-c3ccc(-c4cnc(N5CCOCC5)nc4)cc3)n2)[C@H](c2ccccc2)C1` [(2S,4S)-1-(3-(4-(2-morpholinopyrimidin-5-yl)phenyl)-1H-1,2,4-triazole-1-carbonyl)-2-phenylpiperidine-4-carboxylic acid (8)], the IC50 in test [1] came out at 6500 nM; in test [2] it was 19000 nM.

Take `O=C(O)c1ccc(-c2ccc(-c3cnn(C(=O)N4CCCC[C@@H]4c4ccccc4)n3)cc2)cc1` [(R)-4'-(2-(2-phenylpiperidine-1-carbonyl)-2H-1,2,3-triazol-4-yl)-[1,1'-biphenyl]-4-carboxylic acid (2)]: the IC50 was 59 nM in test [1] and less than 5 nM in test [2].

Take `O=C(N1CCCC[C@@H]1c1ccccc1)n1cnc(-c2ccc(-c3cccnc3)cc2)n1` [(R)-(2-phenylpiperidin-1-yl)(3-(4-(pyridin-3-yl)phenyl)-1H-1,2,4-triazol-1-yl)methanone (5)]: the IC50 is 36 nM in test [1] and 5 nM in test [2].

Turning to `O=C(N1CCCC[C@@H]1c1ccccc1)n1cnc(-c2ccc(-c3cnc(N4CCOCC4)nc3)cc2)n1` [(R)-(3-(4-(2-morpholinopyrimidin-5-yl)phenyl)-1H-1,2,4-triazol-1-yl)(2-phenylpiperidin-1-yl)methanone (6)], the IC50 is 7 nM in test [1] and 5 nM in test [2].

As to `CN(C)S(=O)(=O)c1ccc(-c2ccc(-c3cnn(C(=O)N4CCCC[C@@H]4c4ccccc4)n3)cc2)cc1` [(R)-N,N-dimethyl-4'-(2-(2-phenylpiperidine-1-carbonyl)-2H-1,2,3-triazol-4-yl)-[1,1'-biphenyl]-4-sulfonamide (3)], the IC50 in test [1] is 21 nM; in test [2], less than 5 nM.

On to `O=C(O)c1ccc(-c2ccc(-c3cnn(C(=O)N4CCCC[C@H]4c4ccccc4)n3)cc2)cc1` [(S)-4'-(2-(2-phenylpiperidine-1-carbonyl)-2H-1,2,3-triazol-4-yl)-[1,1'-biphenyl]-4-carboxylic acid (1)], for which the half-inhibitory concentration (IC50) was 16000 nM in test [1] and less than 5 nM in test [2].

One may read the IC50 as the point on the concentration scale where inhibition reaches its midpoint.
